Holding throughout (type): cell-based, human
The subject of one experiment is HPAEC. The experiment in a line: MTT assay, high glucose-induced growth inhibition. The following applies: 5 μM and 20 μM pretreatment 2 hours, 33 mM high glucose 72 hours, dose-dependent. How it is done: (§1) A high-fat diet test system at the cellular level was established using 33 mM high glucose (HG), which is 6 times the standard glucose concentration of 5.5 mM in the vascular endothelial cell culture medium.
(§2) Specifically, two types of endothelial cells, namely, human umbilical vein endothelial cells (HUVECs) and human pulmonary artery endothelial cells (HPAECs), were pretreated with 5 μM and 20 μM of Saikosaponin C (SSc) for 2 hours, and then treated with 33 mM of high glucose for 72 hours. Then, cell growth was analyzed using the MTT assay, which measures the mitochondrial metabolic capacity of living cells.
(§3) Endothelial cell growth was assessed by measuring the absorbance of MTT formazan at a wavelength of 590 nm.

The subject of experiment [1] is HUVEC. In words: MTT assay, high glucose-induced growth inhibition. The following applies: 5 μM and 20 μM pretreatment 2 hours, 33 mM high glucose 72 hours, dose-dependent. How it is done:
as §1, §2, §3
In general terms: Formazan colour is commonly taken as a measure of viable cells.

The next experiment deals with HCAEC. In words: Monocyte-endothelial cell adhesion caused by TNF-α (Calcein AM-labeled THP-1). The following applies: 5 μM and 20 μM pretreatment 2 hours, TNF-α 20 ng/ml 8 hours, THP-1 monocytes. How it is done: (§4) Specifically, two types of vascular endothelial cells, namely, HUVEC (human umbilical vein endothelial cells) and HCAEC (human coronary artery endothelial cells), were pretreated with Saikosaponin C at concentrations of 5 μM and 20 μM for 2 hours, and then treated with TNF-α (20 ng/ml) for 8 hours. Then, adhesion of monocyte-vascular endothelial cell and expression of cell adhesion molecules (ICAM-1, VCAM-1) of vascular endothelial cells were observed. […] The adhesion of monocyte-endothelial cells was evaluated by imaging analysis using a confocal microscope and fluorescence analysis using a microplate reader, and expression of adhesion proteins (ICAM-1 and VCAM-1) was evaluated by Western blotting.
(§5) Calcein AM fluorescence was analyzed using a confocal microscope and a microplate reader, and the expression of cell adhesion proteins (ICAM-1, VCAM-1) were evaluated through Western blotting.
(§6) FIGS. 9A and 9B show the results of analysis of monocyte-endothelial cell adhesion in two types of vascular endothelial cells (HUVEC, HCAEC) using a confocal microscope, and FIGS. 9C and 9D show the results of analysis of Calcein AM fluorescence (at an excitation wavelength of 488 nm, and at an emission wavelength of 517 nm) in the same experiment using a microplate reader. […]

Experiment [2] deals with HUVEC. Described as above. The following applies: 5 μM and 20 μM pretreatment 2 hours, TNF-α 20 ng/ml 8 hours, THP-1 monocytes. How it is done: as §4, §5, §6
The subject of experiment [3] is eNOS / nitric oxide in HUVEC. In words: NOS-NO signaling: nitric oxide level, eNOS activity, expression, phosphorylation. The note with it: 5 μM and 20 μM pretreatment 2 hours, 33 mM high glucose 36 hours, dose-dependent. How it is done:
(§7) Similar to Experimental Example 1, a high-fat diet evaluation system at the cellular level was established.
(§8) Specifically, two types of vascular endothelial cells, namely, HUVEC and HPAEC cells, were pretreated with Saikosaponin C at concentrations of 5 μM and 20 μM for 2 hours, and then treated with high glucose at a concentration of 33 mM for 36 hours. Then, the nitric oxide (NO) concentration, endothelial nitric oxide synthase (eNOS) activity, protein expression, and phosphorylation level were analyzed.
(§9) Nitric oxide production was measured using a Nitric Oxide Assay Kit (FIG. 6A and FIG. 6B). Specifically, nitrate (NO3^−) and nitrite (NO2^−) levels were measured using nitrate reductase and Griess reagent. Nitric oxide synthase activity was measured using a NOS Activity Assay Kit (FIG. 6C and FIG. 6D) and the expression and phosphorylation (Ser114) of NOS were measured by Western blotting (FIG. 6E and FIG. 6F).

Experiment [4] has as its system eNOS / nitric oxide in HPAEC. The experiment is described as above. The note with it: 5 μM and 20 μM pretreatment 2 hours, 33 mM high glucose 36 hours, dose-dependent. How it is done:
as §7, §8, §9

In the case of `CC1O[C@@H](O[C@@H]2C(CO[C@@H]3OC(CO)[C@@H](O)C(O)C3O)O[C@@H](O[C@H]3CC[C@]4(C)[C@H]5C=C[C@]67OC[C@@]8(CCC(C)(C)C[C@H]86)[C@@H](O)C[C@@]7(C)[C@]5(C)CC[C@H]4C3(C)C)C(O)C2O)C(O)C(O)[C@H]1O` (stereo partly drawn) [Saikosaponin C], the “high glucose-induced cell growth inhibition (MTT)” value in the experiment with HPAEC and in the experiment on HUVEC [1] was “significantly alleviated” each time. The “monocyte-endothelial cell adhesion caused by TNF-α” value in the experiment with HCAEC and in the experiment with HUVEC [2] was “inhibited” throughout. The “high glucose-induced decrease in NOS-NO signaling (NO level, eNOS enzymatic activity, protein expression, phosphorylation)” value in experiment [3] and in experiment [4] was “significantly alleviated” throughout.

(Values after patent US20250177425A1, “SAIKOSAPONIN C AS COMPOSITION FOR TREATING OR PREVENTING AGE-RELATED VASCULAR DISEASES INCLUDING ARTERIOSCLEROSIS” (AGINGTARGET, INC., priority 2022, published 2025).)
